The test system of data set [1] is S. aureus. The data set is classed as cell-based, Staphylococcus aureus. The following applies: for agr expression: dose-dependent, SAL at 25 or 50 μg/ml, DICL, 2.5 or 5 μg/ml.
Another data set has as its system SH1000 (MSSA). The data set is described as follows: Gene expression quantified by realtime PCR, strain SH1000. Particulars: early log phase (2-4 hr); 25 μg/ml.
The subject of data set [2] is SA strains SH1000 (MSSA), USA300 (MRSA). The data set is described as follows: Hemolysin phenotype compared to gene expression. Particulars: in parallel to hla; 25 μg/ml.
Data set [3] shares this test system. Nature of the data set: Gene expression quantified by realtime PCR, statements covering both SA strains. The data set is classed as cell-based, Staphylococcus aureus.
Another data set relates to USA300 (MRSA). The data set is described as follows: Gene expression quantified by realtime PCR, strain USA300. The following applies: early log phase (2-4 hr); 25 μg/ml.
The subject of data set [4] is SA strains SH1000 (MSSA), USA300 (MRSA). The data set is described as follows: Antibiotic resistance phenotype (antibiotic MIC) in presence of salicylates. The following applies: vs. both strains.
Data set [5] deals with S. aureus. The data set is described as follows: sarA-repressible genes, lipase and protein A. Particulars: in the presence of SAL.
The subject of data set [6] is S. aureus strains MSSA (6850), MRSA (COL), RN6390, SH1000, sigB operon deleted strains. Nature of the data set: Rabbit IE model with a range of S. aureus strains. The data set is classed as in vivo.
Data set [7] relates to S. aureus. The data set is described as follows: Protease activity in S. aureus supernatants. The data set is classed as cell-based, Staphylococcus aureus. The following applies: in the presence of SAL.
The test system of a further data set is S. aureus α-toxin. The data set is classed as cell-based, Staphylococcus aureus.
Data set [8] deals with S. aureus. Nature of the data set: Solid-phase plate assay, adherence to fibrin and platelet-fibrin matrices. The data set is classed as cell-based, Staphylococcus aureus. The following applies: organism pre-exposure to SAL in vitro. The protocol:
A solid-phase plate assay was used to quantify the impact of SAL on the ability of S. aureus to adhere to fibrin and platelet-fibrin matrices. Platelet-rich (PRP) or platelet-free plasma (PFP) from control animals or those given a single-dose of aspirin iv (8 mg/kg) 5 hr prior to plasma isolation, were used to generate such matrices. […] Kupferwasser et al. Circulation. 1999 99:2791-7. These strains bound equally to control matrices and those constructed from aspirin-treated animals (data not shown).

For data set [9], the system named is S. aureus FDA 486 and rsbU/V/W mutants. The data set is classed as cell-based, Staphylococcus aureus.
For data set [10], the system named is S. aureus (9 individual strains). The data set is described as follows: S. aureus-to-fibrinogen or -fibronectin binding, solid-phase assays. The data set is classed as cell-based, Staphylococcus aureus. The following applies: pre-exposed to SAL 30 and 50 μg/ml; composite of 9 strains; dose-dependent. The source says: Induction of endovascular infections is linked to the microbial binding to relevant vascular damage sites.
Fibrinogen and fibronectin play key roles as ligands for S. aureus binding to cellular docking sites (e.g., platelets and endothelial cells), as well as bridging molecules that facilitate these same interactions in which additional factors are operative (e.g., gC1qR-platelet or endothelial cell binding). Peerschke and Ghebrehiwet, Immunobiology.
Mean reduction (±SD) vs. control (100%). Data are composite results of laboratory S. aureus RN6390, COL, Newman, and ISP479C, and clinical MRSA 67-0, 6850, Duke 28, Duke 153, and Duke 237. […] Key: A P<0.005; B <P 0.001.

Data set [11] concerns S. aureus: ISP479C, Newman and COL. The data set is described as follows: In vitro MICs of aspirin and SAL. The data set is classed as cell-based, Staphylococcus aureus. The following applies: 10-50 ug/ml up to 8 mg/ml.
The test system is the same in data set [12]. The following applies: physiologically relevant drug concentrations; cited from earlier work.
In another data set the test system is strain RN6390. Nature of the data set: Rabbit model of IE, aspirin alone 4 to 12 mg/kg/d for 4 d. The data set is classed as in vivo. Here is the method: To begin to assess the in vitro data sets for in vivo relevance, the rabbit model of IE as described by […] et al. Handbook of Animal Models of Infection. Academic Press, New York, N.Y., was utilized. Animals with pre-established IE caused by strain RN6390 were administered a wide range of iv aspirin dose regimens (4 to 12 mg/kg/d for 4 d therapy). This range affords human-equivalent sera levels in rabbits as described in Kupferwasser et al. Circulation. 1999 99:2791-7.

In a further data set the test system is S. aureus IE. Nature of the data set: Rabbit model of S. aureus IE, aspirin, vancomycin or both for 2 d. The data set is classed as in vivo. The protocol: In the rabbit model of S. aureus IE, two intravenous (iv) aspirin dose regimens designed to encompass those used in a previous aspirin-alone efficacy study (4 or 8 mg/kg/d) were employed. Animals received aspirin alone, vancomycin alone at a low dose regimen (7.5 mg/kg bid iv), or the two agents combined. Treatment was only for 2 d, based on the rationale that as the in vivo effects of vancomycin are traditionally slow in onset, maximal disclosure of any synergistic effect of the two compounds may emerge at this early time point.

Data set [13] concerns three distinct S. aureus strains. The data set is described as follows: NSAID effect on phenotypic or genotypic characteristics of S. aureus in vitro. The data set is classed as cell-based, Staphylococcus aureus. The source says:
These findings also substantiate the concept that the anti-infective properties of aspirin likely occur by both platelet-dependent (aspirin) and platelet independent (SAL) mechanisms. Thus, the discovery of adjunctive use of SALs for MRSA infections are particularly relevant given: 1) long-term and extensive experience of aspirin for a variety of clinical indications; 2) its well-defined pharmacokinetics; and 3) its excellent adverse event and safety profiles.

A short description of data set [14]: Plasma prostacyclin levels after aspirin dosing.

In the case of `O=C(O)Cc1ccccc1Nc1c(Cl)cccc1Cl` [DICL, diclofenac], the agr expression result in the data set on S. aureus [1] is listed as “reduced”.

On to `O=C(O)c1cc(-c2ccc(F)cc2F)ccc1O` [DIF, 5-(2,4-difluorophenyl)-2-hydroxy-benzoic acid], for which the “suppression of agr RNAIII, hla, and vraR” value in the data set with SH1000 (MSSA) is more than 20 fold. For the same compound, the Hemolysis phenotypes result in [2] is recorded as “suppressed”. Moreover, the “regulatory and VF gene expression in MSSA and MRSA” value in data set [3] is “significantly modulate”. The “effectiveness relative to SAL in suppressing virulence factor regulation or expression in MRSA” value in data set [3] (in vitro, MRSA including USA300) is listed as “approximately 10 fold”. In addition, in [3] (log phase), the “reduction of RNAIII (agr), hla, sspA compared with SAL” value is “ten-fold higher reduction”. In addition, in the data set on USA300 (MRSA), the “expression of agr RNAIII, hla, mprF, and sspA” value was “suppressed”. In addition, the “increases in ciprofloxacin MIC” value in data set [4] is on record as “prevented increases”.

On to `O=C(O)c1cc(O)ccc1O` [GTA, gentisic acid], for which the gene expression result in data set [3] (25 μg/ml) is reported as “did not alter”.

For the compound `O=C(O)c1ccccc1O` [SAL, salicylic acid], in the data set with S. aureus [5], the Lipase activity increase was approximately 2.6 fold and the “protein A expression increase” value is reported as approximately 20%. Further, the “in vivo efficacy compared with aspirin” value in [6] (same in vivo efficacy study carried out with SAL) was “equivalent results to aspirin alone”. The “protease activity in supernatants” value in the data set with S. aureus [7] is recorded as “increased up to five-fold”. In addition, in the data set on S. aureus [1], the hla expression result is on record as “significantly reduced”, the “protein A gene expression (spa)” value is on record as “increased”, the “sarA (P1) expression” value is listed as “down-regulating” and the “sarC (P3) expression” value is given as “up-regulating”. In addition, the agr expression result in the data set on S. aureus [1] was “reduced”. Moreover, in the data set on S. aureus α-toxin, the Hla protein production result is “dose dependent reduction”; the “thrombolysis and hemolysis by supernates” value is given as “reduced”; the α-toxin elaboration entry is reported as “reduced”. In addition, the “regulatory and VF gene expression in MSSA and MRSA” value in data set [3] is given as “significantly modulate”. The “modulation of gene expression or hemolysis” value in data set [3] (25 μg/ml) is on record as “limited modulation”. In addition, in the data set on S. aureus [8], the “binding to fibrin and platelet-fibrin matrices” value is “Significant reductions”. Further, the “sigB expression (as measured by increases in asp23 expression)” value in data set [9] was “induces”. The “fibrinogen and fibronectin binding” value in [10] is listed as “significant reductions”. Further, in [11], the “growth inhibition (in vitro MIC testing)” value is given as “no substantial growth inhibition”. For the same compound, in data set [12], the “intrinsic bacteriostatic or bactericidal effects” value is “no evident intrinsic bacteriostatic or bactericidal effects”.

For the compound `CC(=O)Oc1ccccc1C(=O)O` [aspirin, acetylsalicylic acid], the “beneficial effects of 8 mg/kg/d versus lower (4 mg/kg/d) or higher (12 mg/kg/d) dose regimens” value with strain RN6390 (8 mg/kg/d) is “significantly exceeded”. Further, the “beneficial effects at increased dose” value in the data set on strain RN6390 (aspirin 12 mg/kg/d) is recorded as “paradoxical loss”. For the same compound, in the data set on strain RN6390 (iv aspirin 4 to 12 mg/kg/d for 4 d), the “vegetation weight, and vegetation and kidney bacterial densities” value is “consistent and dose-dependent reduction”. The “mass of echocardiographic detectable cardiac valve vegetations” value with strain RN6390 (rabbit, in vivo) was “dramatic reductions”. In addition, the “bacterial counts in vegetations and kidneys” value in the data set with S. aureus IE (aspirin 8 mg/kg/d iv) is “significantly reduces”. For the same compound, the “effects of aspirin treatment across strains” value in data set [6] (RN6390 and rsbU-repaired variant SH1000) was “Equivalent salutary effects”. For the same compound, in data set [6] (strains deleted of their entire sigB operon), the impact of aspirin entry is recorded as “dampened”. The “changes in phenotypic or genotypic characteristics” value in data set [13] was “neither aspirin (parent compound of SAL) nor indomethacin caused detectable changes”. Besides, in [3] (25 μg/ml), the “modulation of gene expression or hemolysis” value was “limited modulation”. In data set [14] (12 mg/kg aspirin dosing), the prostacyclin generation entry was “prolonged suppression”. Besides, the “prolonged suppression of prostacyclin generation” value in data set [14] (4 or 8 mg/kg aspirin) is reported as “neither at 4 or 8 mg/kg”. Besides, the “growth inhibition (in vitro MIC testing)” value in data set [11] is reported as “no substantial growth inhibition”.

For the compound `COc1ccc2c(c1)c(CC(=O)O)c(C)n2C(=O)c1ccc(Cl)cc1` [indomethacin], the “changes in phenotypic or genotypic characteristics” value in data set [13] is “neither aspirin (parent compound of SAL) nor indomethacin caused detectable changes”.

`CN[C@H](CC(C)C)C(=O)N[C@H]1C(=O)N[C@@H](CC(N)=O)C(=O)N[C@H]2C(=O)N[C@H]3C(=O)N[C@H](C(=O)N[C@H](C(=O)O)c4cc(O)cc(O)c4-c4cc3ccc4O)[C@H](O)c3ccc(c(Cl)c3)Oc3cc2cc(c3O[C@@H]2O[C@H](CO)[C@@H](O)[C@H](O)[C@H]2O[C@H]2C[C@](C)(N)[C@H](O)[C@H](C)O2)Oc2ccc(cc2Cl)[C@H]1O` [vancomycin]: the “bacterial counts in vegetations and kidneys” value with S. aureus IE (vancomycin 7.5 mg/kg bid iv) was “significantly reduces”.

The values are drawn from patent US9585897B2, “Anti-infective hydroxy-phenyl-benzoates and methods of use” (priority 2008, dated 2017).
